Data published in patent US20200253211A1, “PHOTODYNAMIC INHIBITION OF MICROBIAL PATHOGENS IN PLANTS” (SUNCOR ENERGY INC, priority 2017, published 2020).

Legend:
Assay type in all cases: cell-based
Erwinia amylovora = assay: Photodynamic inactivation of Erwinia amylovora grown in liquid medium, CFU counted on plates; settings: Table 1
Description: E. amylovora is grown in liquid medium. Samples are incubated for 30 min with 100 μM of Mg-Chlorophyllin with or without 5 mM of Disodium-EDTA, and then illuminated with 395 nm (fluence 26.6 J cm^−2) for 30 mins. CFU of the bacteria is counted on the plates.
In the experiment, E. amylovora were grown in liquid medium. Samples were incubated for 30 min with 100 μM of Mg-Chlorophyllin with or without Chelators, and then illuminated with 395 nm (fluence 26.6 J cm^−2) for 30 mins. CFU of the bacteria was counted on the plates.

Botrytis cinerea mycelia = assay: Photodynamic inhibition of Botrytis cinerea mycelia, percentage of dead samples after 7 days on agar
Description: (§1) In the experiments, Botrytis cinerea mycelia were grown in liquid medium for 48 hours. Small spheres of the mycelia (average diameter 2 mm) were incubated for 100 minutes with Mg-Chlorophyllin with or without 5 mM Disodium-EDTA. Samples were illuminated with 395 nm (fluence 106.6 J cm^−2) for 120 minutes and the radial growth of mycelial patches after 7 days on agar medium was measured. A sample was considered dead, if there was no growth observable after 7 days on agar plates.
as §1, with “mM EDTA (calcium or disodium).” for “mM Disodium-EDTA.”, “120 min” for “120 minutes”
as §1, with “without Baypure DS100” for “without 5 mM Disodium-EDTA.”, “120 min” for “120 minutes”
The protocol for the PDI of B. cinerea was as follows (for experiments 3 and 4 described above): • Grow B. cinerea on malt-peptone-agar for some days. • Transfer spores of B. cinerea to liquid malt-peptone medium. • Incubate for 2-3 days at 26° C. under constant agitation. • Transfer the grown mycelia (spheres of mycelia, approximately 2 mm diameter) to 24 well plates. • Add 500 μl of the PS to the well. • Incubate under agitation for 100 minutes in the dark. • Illuminate under agitation for 120 minutes. • Transfer the treated mycelia to malt-peptone-agar plates and incubate for one week at room temperature. • Evaluate by counting of dead samples.

Sclerotinia homoeocarpa = assay: Radial growth of dollar spot fungus after treatment of plugs in PBS (24 well plates), dark vs light; settings: for inhibition at 500 µM: Clarireedia homoeocarpa
Description: In this example, control of dollar spot fungus (Sclerotinia homoeocarpa) with chlorins combined with a chelating agent was assessed. Treatments were prepared in Phosphate Buffered Saline (PBS) in 24 well plates (in duplicates for light vs. dark incubation) at desired concentrations. Then, a 5 mm diameter plug of a Sclerotinia homoeocarpa isolate (3 isolates total tested) was inoculated into the PBS and incubated at 21° C. in the dark for 2 hours. After 2 hours, one of the 24 well plates (with isolates in triplicate) is left in the dark and one 24 well plate is placed under illumination for 1 hour (all at 21° C.). Following illumination, fungal plugs are removed from PBS, blotted dry on sterile filter paper and transferred to non-amended Potato Dextrose Agar (PDA). Radial growth of the fungus is monitored daily until the growth of S. homoeocarpa reaches the edge of the Petri-dish. Illumination is provided by LED lights emitting about 1000 μmol/m^2/s photosynthetically active radiation (PAR). In this example, control of dollar spot fungus (Sclerotinia homoeocarpa) with Zinc Protoporphyrin IX (Zn-PPIX) combined with EDTA was assessed. Treatments were prepared in Phosphate Buffered Saline (PBS) in 24 well plates (in duplicates for light vs. dark incubation) at desired concentrations. Then, a 5 mm diameter plug of a Sclerotinia homoeocarpa isolate (3 isolates total tested) was inoculated into the PBS and incubated at 21° C. in the dark for 2 hours. After 2 hours, one of the 24 well plates (with isolates in triplicate) is left in the dark and one 24 well plate is placed under illumination for 1 hour (all at 21° C.). Following illumination, fungal plugs are removed from PBS, blotted dry on sterile filter paper and transferred to non-amended Potato Dextrose Agar (PDA). Radial growth of the fungus is monitored daily until the growth of S. homoeocarpa reaches the edge of the Petri-dish. Illumination is provided by LED lights emitting about 1000 μmol/m^2/s photosynthetically active radiation (PAR). In this example, control of dollar spot fungus (Sclerotinia homoeocarpa) with bacteriochlorin combined with EDTA was assessed. Treatments were prepared in Phosphate Buffered Saline (PBS) in 24 well plates (in duplicates for light vs. dark incubation) at desired concentrations. Then, a 5 mm diameter plug of a Sclerotinia homoeocarpa isolate (3 isolates total tested) was inoculated into the PBS and incubated at 21° C. in the dark for 2 hours. After 2 hours, one of the 24 well plates (with isolates in triplicate) is left in the dark and one 24 well plate is placed under illumination for 1 hour (all at 21° C.). Following illumination, fungal plugs are removed from PBS, blotted dry on sterile filter paper and transferred to non-amended Potato Dextrose Agar (PDA). Radial growth of the fungus is monitored daily until the growth of S. homoeocarpa reaches the edge of the Petri-dish. Illumination is provided by LED lights emitting about 1000 μmol/m^2/s photosynthetically active radiation (PAR). In this example, control of dollar spot fungus (Sclerotinia homoeocarpa) with Aluminum chlorin e6 combined with EDTA was assessed. Treatments were prepared in Phosphate Buffered Saline (PBS) in 24 well plates (in duplicates for light vs. dark incubation) at desired concentrations. Then, a 5 mm diameter plug of a Sclerotinia homoeocarpa isolate (3 isolates total tested) was inoculated into the PBS and incubated at 21° C. in the dark for 2 hours. After 2 hours, one of the 24 well plates (with isolates in triplicate) is left in the dark and one 24 well plate is placed under illumination for 1 hour (all at 21° C.). Following illumination, fungal plugs are removed from PBS, blotted dry on sterile filter paper and transferred to non-amended Potato Dextrose Agar (PDA). Radial growth of the fungus is monitored daily until the growth of S. homoeocarpa reaches the edge of the Petri-dish. Illumination is provided by LED lights emitting about 1000 μmol/m^2/s photosynthetically active radiation (PAR). […]

[1] = Table 22A, dark, rate 500 μM, growth between 48 and 72 hours
[2] = Table 22B, light, rate 500 μM, growth between 48 and 72 hours

O=C(O)CN(CCN(CC(=O)O)CC(=O)O)CC(=O)O [EDTA, disodium EDTA]
Relative inactivation, CFU (Erwinia amylovora; EDTA 5 mM alone, in light): 11.1
dead % (Botrytis cinerea mycelia; Table 3, EDTA 5 mM alone, in dark): 0%
dead % (Botrytis cinerea mycelia; Table 3, EDTA 5 mM alone, with light): 0%
dead % (Botrytis cinerea mycelia; Table 4, EDTA-Na 5 mM alone, with light): 0%
inhibition at 500 µM (Sclerotinia homoeocarpa; Table 18A, dark, rate 500 μM): 39.8%
inhibition at 500 µM (Sclerotinia homoeocarpa; Table 18B, light, rate 500 μM): 16.6%
inhibition at 500 µM (Sclerotinia homoeocarpa; Table 19A, light, rate 500 μM): 36%
inhibition at 500 µM (Sclerotinia homoeocarpa; Table 20A, dark, rate 500 μM): 32.8%
inhibition at 500 µM (Sclerotinia homoeocarpa; Table 20B, light, rate 500 μM): 33.5%
inhibition at 500 µM (Sclerotinia homoeocarpa; Table 21A, dark, rate 500 μM): 11.6%
inhibition at 500 µM (Sclerotinia homoeocarpa; Table 21B, light, rate 500 μM): 15.3%
inhibition at 500 µM (Sclerotinia homoeocarpa; [1]): -3.89%
inhibition at 500 µM (Sclerotinia homoeocarpa; [2]): 35.2%
inhibition at 500 µM (Sclerotinia homoeocarpa; Table 31A, dark, rate 500 μM): 13.6%
inhibition at 500 µM (Sclerotinia homoeocarpa; Table 31B, light, rate 500 μM): 36.4%
Mean Radial Growth (Sclerotinia homoeocarpa; Table 18A, dark, rate 500 μM): 6.72 mm
Mean Radial Growth (Sclerotinia homoeocarpa; Table 18B, light, rate 500 μM): 9.22 mm
Mean Radial Growth (Sclerotinia homoeocarpa; Table 19A, light, rate 500 μM): 7.11 mm
Mean Radial Growth (Sclerotinia homoeocarpa; Table 20A, dark, rate 500 μM): 7.17 mm
Mean Radial Growth (Sclerotinia homoeocarpa; Table 20B, light, rate 500 μM): 7.17 mm
Mean Radial Growth (Sclerotinia homoeocarpa; Table 21A, dark, rate 500 μM): 11.06 mm
Mean Radial Growth (Sclerotinia homoeocarpa; Table 21B, light, rate 500 μM): 10.78 mm
Mean Radial Growth (Sclerotinia homoeocarpa; [1]): 14.83 mm
Mean Radial Growth (Sclerotinia homoeocarpa; [2]): 8.89 mm
Mean Radial Growth (Sclerotinia homoeocarpa; Table 31A, dark, rate 500 μM): 12.67 mm
Mean Radial Growth (Sclerotinia homoeocarpa; Table 31B, light, rate 500 μM): 8.17 mm

C=Cc1c(C)c2cc3nc(c(CC(=O)[O-])c4[n-]c(cc5nc(cc1[n-]2)C(C)=C5CC)c(C)c4C(=O)[O-])C(CCC(=O)[O-])C3C.[Mg+2].[Na+].[Na+].[Na+] (stereo not shown) [Mg-Chlorophyllin, Mg-chlorophyllin]
Relative inactivation, CFU (Erwinia amylovora; Mg-Chlorophyllin 100 μM without EDTA, in light (395 nm, 30 mins)): 1.9
dead % (Botrytis cinerea mycelia; Table 3, Mg-Chlorophyllin 10 μM alone, in light): 0%
dead % (Botrytis cinerea mycelia; Table 3, Mg-Chlorophyllin 100 μM alone, in light): 0%
dead % (Botrytis cinerea mycelia; Table 4, Mg-Chlorophyllin 100 μM alone, in light): 0%
Percentage of dead samples [%] (Botrytis cinerea mycelia; Table 27, MgChln 100 μM, with light): 0%
% Inhibition (Sclerotinia homoeocarpa; Table 18A, dark, rate 10 μM): −3.98%
Mean Radial Growth (Sclerotinia homoeocarpa; Table 18A, dark, rate 10 μM): 11.61 mm
% Inhibition (Sclerotinia homoeocarpa; Table 18A, dark, rate 100 μM): −11.94%
Mean Radial Growth (Sclerotinia homoeocarpa; Table 18A, dark, rate 100 μM): 12.50 mm
% Inhibition (Sclerotinia homoeocarpa; Table 18B, light, rate 10 μM): 31.66%
Mean Radial Growth (Sclerotinia homoeocarpa; Table 18B, light, rate 10 μM): 7.56 mm
% Inhibition (Sclerotinia homoeocarpa; Table 18B, light, rate 100 μM): 22.61%
Mean Radial Growth (Sclerotinia homoeocarpa; Table 18B, light, rate 100 μM): 8.56 mm
% Inhibition (Sclerotinia homoeocarpa; Table 25A, dark, rate 5 μM): 1.04%
Mean Radial Growth (Sclerotinia homoeocarpa; Table 25A, dark, rate 5 μM): 10.56 mm
% Inhibition (Sclerotinia homoeocarpa; Table 25B, light, rate 5 μM): 37.76%
Mean Radial Growth (Sclerotinia homoeocarpa; Table 25B, light, rate 5 μM): 6.78 mm
